Columns and labels:
[1] = solubility in water (product description); format: physicochemical; settings: qualitative
[2] = acute toxicity determination; settings: mouse, in vivo, ip; Rockland mice 18-22 g, intraperitoneal, observed for 7 days; read-out: LD50 (50% of animals died)
[3] = test system: eyelid ptosis caused by reserpine; assay: eyelid ptosis test (antagonism of reserpine, anti-depressant activity); format: in vivo, rats; settings: 1 h before reserpine 1 mg/kg i.p., read 4 h after reserpine, percent of controls receiving reserpine only
Description: The anti-depressant activity was determined by the eyelid ptosis test codified by Rubin, J. Pharm. Exp. Ther. Vol. 120 (1957), p. 125. […] The eyelid ptosis test is used as a quantitative evaluation of the animal's condition but the antagonism is equally exerted on all the neuro-depressive symptoms of reserpine: immobility, […], hypothermia,myosis, etc. […] The results of Table I are expressed as percent of ptosis compared to the controls receiving reserpine only.

| SMILES | solubility in water [1] | LD50 at 168 h [2] [mg/kg] | % of ptosis ([3]; 1 mg/kg i.p.) [%] | % of ptosis ([3]; 2 mg/kg i.p.) [%] | % of ptosis ([3]; 5 mg/kg i.p.) [%] | % of ptosis ([3]; 10 mg/kg i.p.) [%] | % of ptosis ([3]; 20 mg/kg i.p.) [%] |
| --- | --- | --- | --- | --- | --- | --- | --- |
| CNCCC1=Cc2ccccc2N(C)c2ccccc21.Cl [5-methyl-10(β-monomethylaminoethyl)-dibenzo (b,f) azepine hydrochloride] | insoluble in ether and water | ~75 | 100 | 72 | 50 | 33 | 11 |
| CN(C)CCC1=Cc2ccccc2N(C)c2cc(Cl)ccc21 [7-chloro-5-methyl-10-(β-dimethylaminoethyl)-dibenzo (b,f) azepine] | insoluble in water |  |  |  |  |  |  |
| CNCCC1=Cc2ccccc2N(C)c2cc(Cl)ccc21 [fumarate of 7-chloro-5-methyl-10-(β-monomethylaminoethyl)-dibenzo (b,f) azepine] | slightly soluble in water |  |  |  |  |  |  |
| CN(C)CCC1=Cc2ccccc2N(C)c2ccccc21 [5-methyl-10-(β-dimethylaminoethyl)-dibenzo (b,f) azepine] | insoluble in water | ~50 |  | 100 | 59 | 37 | 30 |
| CN(C)CCC1=Cc2ccccc2N(C)c2ccc(Cl)cc21 [8-chloro-5-methyl-10-(β-dimethylaminoethyl)-dibenzo(b,f)azepine] | insoluble in water |  |  |  |  |  |  |

Reference: patent publication US3979515A, “Novel dibenzo(b,f)azepines as thymoanaleptics” (Roussel-UCLAF, priority 1969, dated 1976)
